Where “and” joins values, the source holds several entries; their conditions need not be identical. Identical values can stand only once. Toxic doses and inconclusive results are not listed.
Tested on: L1210 leukemia ip in BDF1 mice, survival T/C
Assay: NCI In Vivo Anticancer Drug Screen. Data for tumor model L1210 Leukemia (intraperitoneal) in B6D2F1 (BDF1) mice
Conditions: endpoint: mean survival time, higher = longer survival
Outline: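 Tumor was transplanted into mice, which were then dosed with test compound or vehicle alone. Survival was recorded for each group, and the treated figure was expressed relative to the control figure.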

[1] = dose: 100.0 mg/kg/injection, schedule: Q01DX001 (ip), vehicle: saline with Tween-80
[2] = dose: 200.0 mg/kg/injection, schedule: Q01DX001 (ip), vehicle: saline with Tween-80
[3] = dose: 400.0 mg/kg/injection, schedule: Q01DX001 (ip), vehicle: saline with Tween-80
[4] = dose: 100.0 mg/kg/injection, schedule: Q04DX003 (ip), vehicle: saline with Tween-80
[5] = dose: 50.0 mg/kg/injection, schedule: Q01DX001 (ip), vehicle: saline
[6] = dose: 100.0 mg/kg/injection, schedule: Q01DX001 (ip), vehicle: saline
[7] = dose: 200.0 mg/kg/injection, schedule: Q01DX001 (ip), vehicle: saline
[8] = dose: 100.0 mg/kg/injection, schedule: Q01DX001 (ip), vehicle: carboxymethylcellulose (CMC)
[9] = dose: 200.0 mg/kg/injection, schedule: Q01DX001 (ip), vehicle: carboxymethylcellulose (CMC)
[10] = dose: 400.0 mg/kg/injection, schedule: Q01DX001 (ip), vehicle: carboxymethylcellulose (CMC)

Q: Which results are given for `CC1=Nc2ccccc2/C1=C/c1c(O)[nH]c(=O)[nH]c1=O`?
A: T/C (dose: 37.5 mg/kg/injection, schedule: Q01DX Z (ip), vehicle: carboxymethylcellulose (CMC)): 103 % of control; T/C (dose: 75.0 mg/kg/injection, schedule: Q01DX Z (ip), vehicle: carboxymethylcellulose (CMC)): 103 % of control; T/C (dose: 150.0 mg/kg/injection, schedule: Q01DX Z (ip), vehicle: carboxymethylcellulose (CMC)): 100 % of control; T/C (dose: 300.0 mg/kg/injection, schedule: Q01DX Z (ip), vehicle: carboxymethylcellulose (CMC)): 103 % of control

Q: Which results are given for `O=c1[nH]cnc2c1cnn2C1OC(CO)C(O)C1O` (centres undefined)?
A: T/C (dose: 12.5 mg/kg/injection, schedule: Q01DX005 (ip), vehicle: water): 92 % of control; T/C (dose: 25.0 mg/kg/injection, schedule: Q01DX005 (ip), vehicle: water): 106 % of control; T/C (dose: 50.0 mg/kg/injection, schedule: Q01DX005 (ip), vehicle: water): 97 % of control; T/C (dose: 100.0 mg/kg/injection, schedule: Q01DX005 (ip), vehicle: water): 108 % of control; T/C (dose: 200.0 mg/kg/injection, schedule: Q01DX005 (ip), vehicle: water): 93 % of control

Q: How did the T/C [1] turn out when `COc1ccccc1N=Nc1c(O)n(-c2ccccc2)c(=S)n(-c2ccccc2)c1=O` was run?
A: The T/C was 106 % of control.

Q: What about the T/C [2] of the same compound?
A: The T/C was 95 % of control.

Q: And the T/C [3]?
A: The T/C was 94 % of control.

Q: `CC(C)(C)CC(C)(C)NCc1ccccc1` was tested. Which T/C (dose: 25.0 mg/kg/injection, schedule: Q04DX003 (ip), vehicle: saline with Tween-80) did it give?
A: Its T/C is 103 % of control.

Q: And the T/C (dose: 50.0 mg/kg/injection, schedule: Q04DX003 (ip), vehicle: saline with Tween-80)?
A: Its T/C is 92 % of control.

Q: What about the T/C [4] of the same compound?
A: The T/C was 103 % of control.

Q: Which T/C (dose: 100.0 mg/kg/injection, schedule: Q04DX002 (ip), vehicle: DMSO) does the source give for `COc1ccc(NC(=O)ON(C)C)cc1` here?
A: Its T/C is 111 % of control.

Q: And the T/C (dose: 200.0 mg/kg/injection, schedule: Q04DX002 (ip), vehicle: DMSO)?
A: The T/C was 108 % of control.

Q: And the T/C (dose: 400.0 mg/kg/injection, schedule: Q04DX002 (ip), vehicle: DMSO)?
A: The T/C was 101 % of control.

Q: With `CCNC(=O)N(CC)N=O` as the compound, how does the T/C (dose: 6.25 mg/kg/injection, schedule: Q01DX001 (ip), vehicle: saline) read?
A: The T/C was 97 % of control.

Q: And the T/C (dose: 12.5 mg/kg/injection, schedule: Q01DX001 (ip), vehicle: saline)?
A: The T/C was 102 % of control.

Q: What about the T/C (dose: 25.0 mg/kg/injection, schedule: Q01DX001 (ip), vehicle: saline) of the same compound?
A: Its T/C is 100 % of control.

Q: What about the T/C [5] of the same compound?
A: The T/C was 97 % of control.

Q: What about the T/C [6] of the same compound?
A: Its T/C is 110 % of control.

Q: What about the T/C [7] of the same compound?
A: Its T/C is 113 % of control.

Q: And the T/C (dose: 300.0 mg/kg/injection, schedule: Q01DX001 (ip), vehicle: saline)?
A: The T/C was 124 % of control.

Q: What about the T/C (dose: 500.0 mg/kg/injection, schedule: Q01DX001 (ip), vehicle: saline) of the same compound?
A: The T/C was 112 % of control.

Q: With `CC(=O)Nc1cccc2cc(O)ccc12` as the compound, how does the T/C (dose: 100.0 mg/kg/injection, schedule: Q04DX003 (ip), vehicle: gum acacia) read?
A: Its T/C is 98 % of control.

Q: And the T/C (dose: 200.0 mg/kg/injection, schedule: Q04DX003 (ip), vehicle: gum acacia)?
A: The T/C was 100 % of control.

Q: And the T/C (dose: 400.0 mg/kg/injection, schedule: Q04DX003 (ip), vehicle: gum acacia)?
A: The T/C was 88 % of control.

Q: `COC1CCC2(C)C(C)C(C)CC3OC32C1` (centres undefined) was tested. Which T/C [5] did it give?
A: Its T/C is 95 % of control.

Q: And the T/C [6]?
A: Its T/C is 101 % of control.

Q: What about the T/C [7] of the same compound?
A: Its T/C is 95 % of control.

Q: And the T/C (dose: 400.0 mg/kg/injection, schedule: Q01DX001 (ip), vehicle: saline)?
A: Its T/C is 104 % of control.

Q: How did the T/C (dose: 0.13 mg/kg/injection, schedule: Q01DX010 (oral), vehicle: saline) turn out when `CCCC(=O)NC1=C(N2CC2)C(=O)C(NC(=O)CCC)=C(N2CC2)C1=O` was run?
A: The T/C was 104 % of control.

Q: And the T/C (dose: 0.25 mg/kg/injection, schedule: Q01DX010 (oral), vehicle: saline)?
A: The T/C was 110 % of control.

Q: And the T/C (dose: 0.5 mg/kg/injection, schedule: Q01DX010 (oral), vehicle: saline)?
A: Its T/C is 116 % of control.

Q: And the T/C (dose: 1.0 mg/kg/injection, schedule: Q01DX010 (oral), vehicle: saline)?
A: Its T/C is 116 % of control.

Q: And the T/C (dose: 1.0 mg/kg/injection, schedule: Q01DX Z (ip), vehicle: saline)?
A: Its T/C is 124 % of control.

Q: What about the T/C (dose: 2.0 mg/kg/injection, schedule: Q01DX Z (ip), vehicle: saline) of the same compound?
A: Its T/C is 166 % of control and 193 % of control.

Q: And the T/C (dose: 4.0 mg/kg/injection, schedule: Q01DX010 (oral), vehicle: saline)?
A: Its T/C is 154 % of control.

Q: And the T/C (dose: 8.0 mg/kg/injection, schedule: Q01DX Z (ip), vehicle: saline)?
A: Its T/C is 100 % of control.

Q: With `Nc1ncnc(N)c1NC(=O)c1cc(Cl)c(OCc2ccccc2)c(Cl)c1` as the compound, how does the T/C [1] read?
A: Its T/C is 91 % of control.

Q: What about the T/C [2] of the same compound?
A: Its T/C is 96 % of control.

Q: What about the T/C [3] of the same compound?
A: Its T/C is 96 % of control.

Q: With `OC(c1ccccc1)C1(N2CCCCC2)CCCCC1` (centres undefined) as the compound, how does the T/C (dose: 100.0 mg/kg/injection, schedule: Q01DX001 (ip), vehicle: Klucel (hydroxypropylcellulose) (HPC)) read?
A: The T/C was 94 % of control.

Q: And the T/C (dose: 200.0 mg/kg/injection, schedule: Q01DX001 (ip), vehicle: Klucel (hydroxypropylcellulose) (HPC))?
A: The T/C was 100 % of control.

Q: What about the T/C (dose: 400.0 mg/kg/injection, schedule: Q01DX001 (ip), vehicle: Klucel (hydroxypropylcellulose) (HPC)) of the same compound?
A: The T/C was 96 % of control.

Q: Which results are given for `CNc1ncnc2[nH]ncc12`?
A: T/C (dose: 50.0 mg/kg/injection, schedule: Q01DX001 (ip), vehicle: carboxymethylcellulose (CMC)): 94 % of control; T/C [8]: 88 % of control; T/C [9]: 96 % of control; T/C [10]: 103 % of control

Q: Which results are given for `O=[N+]([O-])c1ccc(N/N=C2/C(=C/c3cccc4ccccc34)CCc3ccccc32)c([N+](=O)[O-])c1`?
A: T/C (dose: 100.0 mg/kg/injection, schedule: Q01DX009 (ip), vehicle: Klucel (hydroxypropylcellulose) (HPC)): 91 % of control; T/C (dose: 200.0 mg/kg/injection, schedule: Q01DX009 (ip), vehicle: Klucel (hydroxypropylcellulose) (HPC)): 89 % of control; T/C (dose: 400.0 mg/kg/injection, schedule: Q01DX009 (ip), vehicle: Klucel (hydroxypropylcellulose) (HPC)): 91 % of control

Q: Which results are given for `CCN(CC)Cc1c(C)[nH]c2ccc(N(C)C)cc2c1=O`?
A: T/C (dose: 50.0 mg/kg/injection, schedule: Q01DX009 (ip), vehicle: saline): 101 % of control; T/C (dose: 100.0 mg/kg/injection, schedule: Q01DX009 (ip), vehicle: saline): 106 % of control; T/C (dose: 100.0 mg/kg/injection, schedule: Q04DX003 (ip), vehicle: saline): 115 % of control; T/C (dose: 200.0 mg/kg/injection, schedule: Q01DX009 (ip), vehicle: saline): 92 % of control; T/C (dose: 200.0 mg/kg/injection, schedule: Q04DX003 (ip), vehicle: saline): 109 % of control

Q: What does the source list for `O=C(CCl)c1ccccc1`?
A: T/C [8]: 91 % of control; T/C [9]: 95 % of control; T/C [10]: 97 % of control

Q: What does the source list for `C[N+](C)(C)CSc1ccccc1-n1cccc1`?
A: T/C (dose: 12.5 mg/kg/injection, schedule: Q01DX009 (ip), vehicle: Klucel (hydroxypropylcellulose) (HPC)): 112 % of control; T/C (dose: 12.5 mg/kg/injection, schedule: Q04DX003 (ip), vehicle: Klucel (hydroxypropylcellulose) (HPC)): 103 % of control; T/C (dose: 25.0 mg/kg/injection, schedule: Q01DX009 (ip), vehicle: Klucel (hydroxypropylcellulose) (HPC)): 103 % of control; T/C (dose: 25.0 mg/kg/injection, schedule: Q04DX003 (ip), vehicle: Klucel (hydroxypropylcellulose) (HPC)): 92 % of control; T/C (dose: 50.0 mg/kg/injection, schedule: Q01DX009 (ip), vehicle: Klucel (hydroxypropylcellulose) (HPC)): 110 % of control; T/C (dose: 50.0 mg/kg/injection, schedule: Q04DX003 (ip), vehicle: Klucel (hydroxypropylcellulose) (HPC)): 97 % of control

Q: `CCOC(=O)CC1OC(=O)c2ccccc21` (centres undefined) was tested. Which T/C (dose: 100.0 mg/kg/injection, schedule: Q04DX002 (ip), vehicle: saline with Tween-80) did it give?
A: The T/C was 97 % of control.

Q: And the T/C (dose: 200.0 mg/kg/injection, schedule: Q04DX002 (ip), vehicle: saline with Tween-80)?
A: The T/C was 104 % of control.

Q: What about the T/C (dose: 400.0 mg/kg/injection, schedule: Q04DX002 (ip), vehicle: saline with Tween-80) of the same compound?
A: Its T/C is 108 % of control.

Q: `O=S1(=O)C=C(Br)C1` was tested. Which T/C (dose: 100.0 mg/kg/injection, schedule: Q04DX002 (ip), vehicle: Klucel (hydroxypropylcellulose) (HPC)) did it give?
A: Its T/C is 94 % of control and 106 % of control.

Q: What about the T/C (dose: 200.0 mg/kg/injection, schedule: Q04DX002 (ip), vehicle: Klucel (hydroxypropylcellulose) (HPC)) of the same compound?
A: Its T/C is 106 % of control.

Q: Which results are given for `C1CC(C2OCOC3COCOC32)OO1` (centres undefined)?
A: T/C (dose: 222.0 mg/kg/injection, schedule: Q01DX Z (ip), vehicle: methylcellulose (MC)): 89 % of control; T/C (dose: 333.0 mg/kg/injection, schedule: Q01DX Z (ip), vehicle: methylcellulose (MC)): 104 % of control; T/C (dose: 500.0 mg/kg/injection, schedule: Q01DX Z (ip), vehicle: methylcellulose (MC)): 92 % of control

Q: For `CC(=O)OCC1OCC(OC(C)=O)C(OC(C)=O)C1OC(C)=O` (centres undefined), which T/C [4] is on record?
A: The T/C was 94 % of control.

Q: And the T/C (dose: 200.0 mg/kg/injection, schedule: Q04DX003 (ip), vehicle: saline with Tween-80)?
A: The T/C was 98 % of control.

Q: And the T/C (dose: 400.0 mg/kg/injection, schedule: Q04DX003 (ip), vehicle: saline with Tween-80)?
A: The T/C was 98 % of control.
